How the values were obtained:
Conditions in all cases: incubation time: 72 h
[1] = tested on: BT-474; experiment: normalised response (% of control), CellTox Green; higher = less cell death (100 = DMSO, 0 = benzethonium chloride kill control)
Procedure, shortened: (§1)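 Two readouts were taken after 72 h: CellTox Green fluorescence (485/520 nm) first, then CellTiter-Glo luminescence after 10 min at room temperature. Breast cancer cell lines had been seeded as 20 µl suspension into 384-well plates holding compound at 5 concentrations in 10-fold steps across a compound-specific 10,000-fold range. Each value is a normalised signal at a single concentration, with plates scaled to 0.1 % DMSO (100) and a positive kill control (0).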

[2] = tested on: BT-549; experiment: as above
Procedure, shortened: as §1

[3] = tested on: CAL-120; experiment: as above
Procedure, shortened: as §1

[4] = tested on: CAL-148; experiment: as above
Procedure, shortened: as §1

[5] = tested on: CAL-51; experiment: as above
Procedure, shortened: as §1

[6] = tested on: CAL-85-1; experiment: as above
Procedure, shortened: as §1

[7] = tested on: DU-4475; experiment: as above
Procedure, shortened: as §1

[8] = tested on: HCC1143; experiment: as above
Procedure, shortened: as §1

[9] = tested on: HCC1599; experiment: as above
Procedure, shortened: as §1

[10] = tested on: HCC1937; experiment: as above
Procedure, shortened: as §1

[11] = tested on: HDQ-P1; experiment: as above
Procedure, shortened: as §1

[12] = tested on: Hs578T; experiment: as above
Procedure, shortened: as §1

[13] = tested on: MCF-10A; experiment: as above
Procedure, shortened: as §1

[14] = tested on: MDA-MB-231; experiment: as above
Procedure, shortened: as §1

[15] = tested on: MDA-MB-436; experiment: as above
Procedure, shortened: as §1

[16] = tested on: MDA-MB-453; experiment: as above
Procedure, shortened: as §1

[17] = tested on: MDA-MB-468; experiment: as above
Procedure, shortened: as §1

[18] = tested on: MFM-223; experiment: as above
Procedure, shortened: as §1

[19] = tested on: BT-474; experiment: normalised response (% of control), CellTiter-Glo; higher = more viable cells (100 = DMSO, 0 = benzethonium chloride kill control)
Procedure, shortened: as §1

[20] = tested on: BT-549; experiment: as above
Procedure, shortened: as §1

[21] = tested on: CAL-120; experiment: as above
Procedure, shortened: as §1

[22] = tested on: CAL-148; experiment: as above
Procedure, shortened: as §1

[23] = tested on: CAL-51; experiment: as above
Procedure, shortened: as §1

[24] = tested on: CAL-85-1; experiment: as above
Procedure, shortened: as §1

[25] = tested on: DU-4475; experiment: as above
Procedure, shortened: as §1

[26] = tested on: HCC1143; experiment: as above
Procedure, shortened: as §1

[27] = tested on: HCC1599; experiment: as above
Procedure, shortened: as §1

[28] = tested on: HCC1937; experiment: as above
Procedure, shortened: as §1

[29] = tested on: HDQ-P1; experiment: as above
Procedure, shortened: as §1

[30] = tested on: Hs578T; experiment: as above
Procedure, shortened: as §1

[31] = tested on: MCF-10A; experiment: as above
Procedure, shortened: as §1

[32] = tested on: MDA-MB-231; experiment: as above
Procedure, shortened: as §1

[33] = tested on: MDA-MB-436; experiment: as above
Procedure, shortened: as §1

[34] = tested on: MDA-MB-453; experiment: as above
Procedure, shortened: as §1

[35] = tested on: MDA-MB-468; experiment: as above
Procedure, shortened: as §1

[36] = tested on: MFM-223; experiment: as above
Procedure, shortened: as §1

[37] = tested on: SK-BR-3; experiment: as above
Procedure, shortened: as §1

Row | Compound | normalised response [1] [%] | normalised response [2] [%] | normalised response [3] [%] | normalised response [4] [%] | normalised response [5] [%] | normalised response [6] [%] | normalised response [7] [%] | normalised response [8] [%] | normalised response [9] [%] | normalised response [10] [%] | normalised response [11] [%] | normalised response [12] [%] | normalised response [13] [%] | normalised response [14] [%] | normalised response [15] [%] | normalised response [16] [%] | normalised response [17] [%] | normalised response [18] [%] | normalised response [19] [%] | normalised response [20] [%] | normalised response [21] [%] | normalised response [22] [%] | normalised response [23] [%] | normalised response [24] [%] | normalised response [25] [%] | normalised response [26] [%] | normalised response [27] [%] | normalised response [28] [%] | normalised response [29] [%] | normalised response [30] [%] | normalised response [31] [%] | normalised response [32] [%] | normalised response [33] [%] | normalised response [34] [%] | normalised response [35] [%] | normalised response [36] [%] | normalised response [37] [%]
1 | CN1CCC(COc2cnc(-c3cccc(Cn4nc(-c5cccc(C#N)c5)ccc4=O)c3)nc2)CC1 (100 nM) | 97.9 | 149 | 98.9 | 103 | 93.3 | 95.1 | 97.6 | 101 | 110 | 125 | 103 | 110 | 102 | 119 | 99.9 | 107 | 157 | 101 | 92.7 | 94 | 95.8 | 100 | 74 | 93.5 | 100 | 93.3 | 102 | 97.7 | 98.9 | 104 | 99.3 | 101 | 93.1 | 85.2 | 90.9 | 90.5 | 82.2
2 | C=CCNC1=C2C[C@@H](C)C[C@H](OC)[C@H](O)[C@@H](C)/C=C(\C)[C@H](OC(N)=O)[C@@H](OC)/C=C\C=C(/C)C(=O)NC(=CC1=O)C2=O [Tanespimycin] (10 nM) | – | – | – | – | – | – | – | – | – | – | – | – | – | – | – | – | – | – | 90.4 | 98.3 | 97.9 | 96.4 | 120 | 100 | 105 | 105 | 94.4 | 96.5 | 98.2 | 94.4 | 105 | 101 | 92.6 | 92.8 | 94.2 | 101 | 103
3 | CO[C@H]1C[C@@H]2CC[C@@H](C)[C@@](O)(O2)C(=O)C(=O)N2CCCC[C@H]2C(=O)O[C@H]([C@H](C)C[C@@H]2CC[C@@H](OC(=O)C(C)(CO)CO)[C@H](OC)C2)CC(=O)[C@H](C)/C=C(\C)[C@@H](O)[C@@H](OC)C(=O)[C@H](C)C[C@H](C)/C=C/C=C/C=C/1C [Temsirolimus] (0.01 nM) | – | – | – | – | – | – | – | – | – | – | – | – | – | – | – | – | – | – | 103 | 98.3 | 99.6 | 110 | 115 | 106 | 103 | 98.1 | 97 | 97.1 | 105 | 96.7 | 101 | 101 | 99.7 | 108 | 106 | 101 | 101
4 | CO[C@H]1C[C@@H]2CC[C@@H](C)[C@@](O)(O2)C(=O)C(=O)N2CCCC[C@H]2C(=O)O[C@H]([C@H](C)C[C@@H]2CC[C@@H](OC(=O)C(C)(CO)CO)[C@H](OC)C2)CC(=O)[C@H](C)/C=C(\C)[C@@H](O)[C@@H](OC)C(=O)[C@H](C)C[C@H](C)/C=C/C=C/C=C/1C [Temsirolimus] (10 nM) | 103 | 134 | 101 | 90.9 | 107 | 95.8 | 95.5 | 84 | 101 | -57.4 | 97.4 | -83.2 | – | 124 | 102 | 107 | 103 | 75.2 | 83.3 | 55.1 | 67.8 | 62.1 | 55.5 | 67.9 | 74.8 | 63.9 | 109 | 74.4 | 77.4 | 70 | 87.7 | 93 | 79.9 | 53.5 | 62.1 | 70.7 | 60.7
5 | O=C(c1ccc(C(=O)N2CCC(N3CCCC3)CC2)c(Nc2ccccc2)c1)N1CCC(N2CCCC2)CC1 [UNC1215] (3 nM) | – | – | – | – | – | – | – | – | – | – | – | – | – | – | – | – | – | – | 94.4 | 96.6 | 95.3 | 91 | 123 | 93.7 | 97.2 | 87.5 | 92.1 | 91.7 | 97.3 | 99.1 | 102 | 99.1 | 93.6 | 102 | 101 | 94.5 | 99
6 | O=C(c1ccc(C(=O)N2CCC(N3CCCC3)CC2)c(Nc2ccccc2)c1)N1CCC(N2CCCC2)CC1 [UNC1215] (30 nM) | – | – | – | – | – | – | – | – | – | – | – | – | – | – | – | – | – | – | 98.7 | 97.8 | 102 | 95 | 77.9 | 96.7 | 97 | 97.3 | 118 | 96.7 | 94.3 | 103 | 103 | 90.2 | 104 | 91.5 | 97.4 | 91.4 | 100
7 | O=C(c1ccc(C(=O)N2CCC(N3CCCC3)CC2)c(Nc2ccccc2)c1)N1CCC(N2CCCC2)CC1 [UNC1215] (3000 nM) | 96.9 | 85.1 | 99.3 | 99.7 | 114 | 96.8 | 98.5 | 109 | 99.8 | 111 | – | – | 101 | 98 | 96.3 | 99.2 | 80.5 | 101 | 95 | 96.9 | 98 | 94.9 | 115 | 94.7 | 98.3 | 93.9 | 107 | 94 | 100 | 95.3 | 108 | 91.2 | 92.8 | 98 | 91.6 | 92.6 | 93.5
8 | C[C@]1(c2nc3c(C(N)=O)cccc3[nH]2)CCCN1 [Veliparib] (10 nM) | – | – | – | – | – | – | – | – | – | – | – | – | – | – | – | – | – | – | 103 | 100 | 102 | 98.8 | 118 | 106 | 104 | 105 | 92.1 | 101 | 98.7 | 98.8 | 105 | 99 | 99 | 109 | 108 | 99.7 | 110
9 | CC[C@]1(O)C[C@@H]2CN(CCc3c([nH]c4ccccc34)[C@@](C(=O)OC)(c3cc4c(cc3OC)N(C)[C@H]3[C@@](O)(C(=O)OC)[C@H](OC(C)=O)[C@]5(CC)C=CCN6CC[C@]43[C@@H]65)C2)C1 [Vinblastine] (1 nM) | – | – | – | – | – | – | – | – | – | – | – | – | – | – | – | – | – | – | 100 | 87.8 | 95 | 98.8 | 101 | 93 | 96.9 | 97.1 | 101 | 94.9 | 101 | 102 | 103 | 94.7 | 90.7 | 97.2 | 97.9 | 97.6 | 94.7
10 | CS(=O)(=O)c1ccc(C(=O)Nc2ccc(Cl)c(-c3ccccn3)c2)c(Cl)c1 [Vismodegib] (10 nM) | – | – | – | – | – | – | – | – | – | – | – | – | – | – | – | – | – | – | 90.2 | 96.4 | 95.2 | 91 | 126 | 102 | 96.4 | 93.9 | 100 | 96.4 | 99.4 | 95.4 | 90.3 | 90.8 | 91.5 | 89.4 | 92.9 | 94.3 | 105
